In patent publication EP0908457B1, “3-(1,2-benzisothiazol- and isoxazol-5-Y1)-2,4(1H,3H)-pyrimidinedione or thione and 3-(1,2-benzisothiazol- and isoxazol-5-y1)-4(3H)-pyrimidinone or thione herbicidal agents” (BASF AKTIENGESELLSCHAFT, priority 1997, dated 1999):

Legend:
[1] = test system: Echinochloa oryzoides (Ard.) Fritsch.; experiment: Postemergence weed control under flooded paddy conditions, ECHORC (Watergrass (Calif.)); assay type: in vivo; details: rated three to four weeks after treatment
[2] = test system: Cyperus iria; experiment: Preemergence weed control under flooded paddy conditions, CYPIR (Rice Flatsedge); assay type: in vivo; details: preemergence weeds, flooded paddy, herbicidal effect rating 0-9, three to four weeks after treatment
[3] = test system: Monochoria vaginalis, Presl.; experiment: Preemergence weed control under flooded paddy conditions, MOOVA (Monochoria); assay type: in vivo; details: preemergence weeds, flooded paddy, herbicidal effect rating 0-9, three to four weeks after treatment
[4] = test system: Echinochloa oryzoides (Ard.) Fritsch.; experiment: Preemergence weed control under flooded paddy conditions, ECHORC (Watergrass (Calif.)); assay type: in vivo; details: preemergence weeds, flooded paddy, herbicidal effect rating 0-9, three to four weeks after treatment
[5] = test system: Cyperus serotinus, Rottb.; experiment: Preemergence weed control under flooded paddy conditions, CYPSE (Flatsedge); assay type: in vivo; details: preemergence weeds, herbicidal effect rating 0-9, three to four weeks after treatment
[6] = test system: Sagittaria pygmaea, L.; experiment: Postemergence weed control under flooded paddy conditions, SAGPY (Arrowhead (Pygmaea)); assay type: in vivo; details: rated three to four weeks after treatment
[7] = test system: Cyperus serotinus, Rottb.; experiment: Postemergence weed control under flooded paddy conditions, CYPSE (Flatsedge); assay type: in vivo; details: rated three to four weeks after treatment
[8] = test system: Cyperus iria; experiment: Postemergence weed control under flooded paddy conditions, CYPIR (Rice Flatsedge); assay type: in vivo; details: rated three to four weeks after treatment
[9] = test system: Oryza sativa, (L.) Tebonnet; experiment: Rice tolerance to post-transplant applications under flooded paddy conditions (Example 187), ORYSAT (Rice, Tebonnet); details: herbicidal effect rating 0-9, three to four weeks after treatment
[10] = test system: Sagittaria pygmaea, L.; experiment: Preemergence weed control under flooded paddy conditions, SAGPY (Arrowhead (Pygmaea)); assay type: in vivo; details: preemergence weeds, flooded paddy, herbicidal effect rating 0-9, three to four weeks after treatment
[11] = test system: Monochoria vaginalis, Presl.; experiment: Postemergence weed control under flooded paddy conditions, MOOVA (Monochoria); assay type: in vivo; details: rated three to four weeks after treatment
[12] = test system: Oryza sativa, (L.) Tebonnet; experiment: Rice tolerance to post-transplant applications under flooded paddy conditions (Example 188), ORYSAT (Rice, Tebonnet); details: rated three to four weeks after treatment

SMILES: CCCCC(=O)c1nsc2ccc(-n3c(=O)cc(C(F)(F)F)n(C)c3=O)cc12 [Example 431, 2,4(1H,3H)-Pyrimidinedione, 1-methyl-6-(trifluoromethyl)-3-(3-valeryl-1,2-benzisothiazol-5-yl)-]
- herbicidal effect rating, ECHORC ([1]; Rate 0.0320 kg/ha): 7.0
- herbicidal effect rating, ECHORC ([1]; Rate 0.0620 kg/ha): 9.0
- herbicidal effect rating, ECHORC ([1]; Rate 0.1250 kg/ha): 9.0
- herbicidal effect rating, ECHORC ([1]; Rate 0.2500 kg/ha): 9.0
- CYPIR ([2]; 0.0320 kg/ha): 8.0
- CYPIR ([2]; 0.0620 kg/ha): 9.0
- CYPIR ([2]; 0.1250 kg/ha): 9.0
- CYPIR ([2]; 0.2500 kg/ha): 9.0
- MOOVA ([3]; 0.0320 kg/ha): 9.0
- MOOVA ([3]; 0.0620 kg/ha): 9.0
- MOOVA ([3]; 0.1250 kg/ha): 9.0
- MOOVA ([3]; 0.2500 kg/ha): 9.0
- ECHORC ([4]; 0.0320 kg/ha): 8.0
- ECHORC ([4]; 0.0620 kg/ha): 9.0
- ECHORC ([4]; 0.1250 kg/ha): 8.5
- ECHORC ([4]; 0.2500 kg/ha): 9.0
- CYPSE ([5]; 0.0320 kg/ha): 0.0
- CYPSE ([5]; 0.0620 kg/ha): 4.0
- CYPSE ([5]; 0.1250 kg/ha): 7.5
- CYPSE ([5]; 0.2500 kg/ha): 9.0
- herbicidal effect rating, SAGPY ([6]; Rate 0.0320 kg/ha): 0.0
- herbicidal effect rating, SAGPY ([6]; Rate 0.0620 kg/ha): 0.0
- herbicidal effect rating, SAGPY ([6]; Rate 0.1250 kg/ha): 0.0
- herbicidal effect rating, SAGPY ([6]; Rate 0.2500 kg/ha): 4.0
- herbicidal effect rating, CYPSE ([7]; Rate 0.0320 kg/ha): 0.0
- herbicidal effect rating, CYPSE ([7]; Rate 0.0620 kg/ha): 0.0
- herbicidal effect rating, CYPSE ([7]; Rate 0.1250 kg/ha): 0.0
- herbicidal effect rating, CYPSE ([7]; Rate 0.2500 kg/ha): 4.0
- herbicidal effect rating, CYPIR ([8]; Rate 0.0320 kg/ha): 4.0
- herbicidal effect rating, CYPIR ([8]; Rate 0.0620 kg/ha): 7.0
- herbicidal effect rating, CYPIR ([8]; Rate 0.1250 kg/ha): 9.0
- herbicidal effect rating, CYPIR ([8]; Rate 0.2500 kg/ha): 9.0
- ORYSAT ([9]; 0.0320 kg/ha): 3.5
- ORYSAT ([9]; 0.0620 kg/ha): 5.5
- ORYSAT ([9]; 0.1250 kg/ha): 5.0
- ORYSAT ([9]; 0.2500 kg/ha): 6.5
- SAGPY ([10]; 0.0320 kg/ha): 3.5
- SAGPY ([10]; 0.0620 kg/ha): 5.5
- SAGPY ([10]; 0.1250 kg/ha): 7.5
- SAGPY ([10]; 0.2500 kg/ha): 9.0
- herbicidal effect rating, MOOVA ([11]; Rate 0.0320 kg/ha): 6.0
- herbicidal effect rating, MOOVA ([11]; Rate 0.0620 kg/ha): 9.0
- herbicidal effect rating, MOOVA ([11]; Rate 0.1250 kg/ha): 9.0
- herbicidal effect rating, MOOVA ([11]; Rate 0.2500 kg/ha): 9.0
- herbicidal effect rating, ORYSAT (rice tolerance) ([12]; Rate 0.0320 kg/ha): 3.0
- herbicidal effect rating, ORYSAT (rice tolerance) ([12]; Rate 0.0620 kg/ha): 3.0
- herbicidal effect rating, ORYSAT (rice tolerance) ([12]; Rate 0.1250 kg/ha): 3.0
- herbicidal effect rating, ORYSAT (rice tolerance) ([12]; Rate 0.2500 kg/ha): 7.0
